Source: US20240368163A1, “COMPOUNDS AND METHODS FOR MODULATING SPLICING” (REMIX THERAPEUTICS INC., priority 2021, published 2024)
Read-outs that look alike come from different tables or passages of the source.

What was measured:
Type in all cases: cell-based, human
HTT [1] = test: Splicing RT-qPCR assay, HTT mRNA canonical junction (CJ) and alternative junction (AJ); settings: RT-qPCR panel, canonical junction mRNA, compound concentration having 50% response in CJ decrease, read-out: HTT IC50 (decrease in CJ mRNA levels)
Procedure, shortened: (§1)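 First, A673 cells adhered 24 h, while K562 cells were plated directly. Next, compounds were added as an 11-point 3-fold series from 10 uM for 24 h. Finally, lysates went to RT-qPCR, with 2^(−ΔΔCt) values converted to percentage response.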

MYB [2] = test: Splicing RT-qPCR assay, MYB mRNA canonical junction (CJ) and alternative junction (AJ); settings: RT-qPCR panel, canonical junction mRNA, compound concentration having 50% response in CJ decrease, read-out: MYB IC50 (decrease in CJ mRNA levels)
Procedure, shortened: as §1

SMN2 = test: Splicing RT-qPCR panel, SMN2 canonical junction (CJ) mRNA; settings: RT-qPCR panel, canonical junction mRNA, compound concentration having 50% response in CJ decrease, read-out: SMN2 IC50 (decrease in CJ mRNA levels)
Procedure, shortened: as §1

Target C [3] = test: Splicing RT-qPCR panel, Target C canonical junction (CJ) mRNA; settings: RT-qPCR panel, canonical junction mRNA, compound concentration having 50% response in CJ decrease, read-out: Target C IC50 (decrease in CJ mRNA levels)
Procedure, shortened: as §1

MYB [4] = test: HiBiT protein abundance assay, MYB; settings: Table 13A, modified K562 cells
Procedure, shortened: (§2)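 HiBiT knock-in K562, 10000 cells/well, 24 h cpd at 37 °C/5% CO2; 10-pt 3-fold series from 10 μM final; DMSO ≤0.25%. Lytic detection, luminescence read. 4PL fit → IC50 vs DMSO control; unmodified K562 = baseline.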

HTT [5] = test: HiBiT protein abundance assay, HTT; settings: Table 13A, modified K562 cells
Procedure, shortened: as §2

Target C [6] = test: HiBiT protein abundance assay, Target C; settings: Table 13A, modified K562 cells
Procedure, shortened: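 Luminescence from lytic HiBiT detection, taken after 24 h compound exposure at 37 °C, reports tagged protein abundance in knock-in cells seeded at 10000 cells/well. Doses spanned 10 points, 3-fold steps, top 10 μM final. A four-parameter logistic fit gave the 50% abundance concentration (IC50).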

| SMILES | IC50 (HTT [1]; Homo sapiens) [nM] | IC50 (MYB [2]; Homo sapiens) [nM] | IC50 (SMN2; Homo sapiens) [nM] | IC50 (Target C [3]; Homo sapiens) [nM] | IC50 (MYB [4]; Homo sapiens, K562, 24 h) [nM] | IC50 (HTT [5]; Homo sapiens, K562, 24 h) [nM] | IC50 (Target C [6]; Homo sapiens, K562, 24 h) [nM] | IC50 (HTT [1]) [nM] | IC50 (MYB [2]) [nM] | IC50 (SMN2) [nM] | IC50 (Target C [3]) [nM] | IC50 (MYB [4]; 24 hours) [nM] | IC50 (HTT [5]; 24 hours) [nM] | IC50 (Target C [6]; 24 hours) [nM] |
| --- | --- | --- | --- | --- | --- | --- | --- | --- | --- | --- | --- | --- | --- | --- |
| CN(c1ncc(-c2ccc(-c3cn[nH]c3)c3ncsc23)nn1)[C@@H]1C[C@H]2CCC[C@@H](C1)N2 [Compound 449, (1S,5R)—N-methyl-N-[6-[4-(1H-pyrazol-4-yl)-1,3-benzothiazol-7-yl]-1,2,4-triazin-3-yl]-9-azabicyclo[3.3.1]nonan-3-amine] | < 100 | 100 to 1000 | < 100 | < 100 | 100 to 1000 | < 100 | < 100 |  |  |  |  |  |  |  |
| c1nc2c(-c3cn[nH]c3)ccc(-c3cnc(N4CCN[C@H](C5CC5)C4)nn3)c2s1 [Compound 451] | 1000 to 10000 | 1000 to 10000 | 1000 to 10000 | 1000 to 10000 | 1000 to 10000 | 1000 to 10000 | 1000 to 10000 |  |  |  |  |  |  |  |
| c1cnn(-c2ccc(-c3cnc(N4CCC(NC5CC5)C4)nn3)c3cn[nH]c23)c1 (centres unmarked) [Compound 484, N-cyclopropyl-1-[6-(7-pyrazol-1-yl-1H-indazol-4-yl)-1,2,4-triazin-3-yl]pyrrolidin-3-amine] | 1000 to 10000 | > 10000 | 1000 to 10000 | > 10000 | > 10000 | 1000 to 10000 | 1000 to 10000 |  |  |  |  |  |  |  |
| CNC1CCN(c2ncc(-c3ccc(-n4cccn4)c4[nH]ncc34)nn2)C1 (centres unmarked) [Compound 485, N-methyl-1-[6-(7-pyrazol-1-yl-1H-indazol-4-yl)-1,2,4-triazin-3-yl]pyrrolidin-3-amine] | 1000 to 10000 | 1000 to 10000 | 1000 to 10000 | > 10000 | 1000 to 10000 | 1000 to 10000 | 1000 to 10000 |  |  |  |  |  |  |  |
| c1cnn(-c2ccc(-c3cnc(N4CCNC(C5CC5)C4)nn3)c3cn[nH]c23)c1 (centres unmarked) [Compound 511] | < 100 | 1000 to 10000 | 100 to 1000 | 100 to 1000 | 1000 to 10000 | 100 to 1000 | 100 to 1000 |  |  |  |  |  |  |  |
| c1cnn(-c2ccc(-c3cnc(N4CCC(NC5CC5)C4)nn3)c3cn[nH]c23)c1 (centres unmarked) [Compound 548] |  |  |  |  |  |  |  | 1000 to 10000 | > 10000 | 1000 to 10000 | > 10000 | > 10000 | 1000 to 10000 | 1000 to 10000 |
| CNC1CCN(c2ncc(-c3ccc(-n4cccn4)c4[nH]ncc34)nn2)C1 (centres unmarked) [Compound 549] |  |  |  |  |  |  |  | 1000 to 10000 | 1000 to 10000 | 1000 to 10000 | > 10000 | 1000 to 10000 | 1000 to 10000 | 1000 to 10000 |
| c1nc2c(-c3cn[nH]c3)ccc(-c3cnc(N4CCN[C@@H](C5CC5)C4)nn3)c2s1 [Compound 552] | 100 to 1000 | 1000 to 10000 | 100 to 1000 | 1000 to 10000 | 1000 to 10000 | 100 to 1000 | 100 to 1000 |  |  |  |  |  |  |  |
| CC1(C)CC(Oc2ccc(-c3ccc(-n4cccn4)c4[nH]ncc34)nn2)CC(C)(C)N1 [Compound 554] | 100 to 1000 | 100 to 1000 | 100 to 1000 | 1000 to 10000 | 100 to 1000 | 100 to 1000 | 100 to 1000 |  |  |  |  |  |  |  |
| CC1(C)CC(Nc2ccc(-c3ccc(-n4cccn4)c4[nH]ncc34)nn2)CC(C)(C)N1 [Compound 558] | 100 to 1000 | 100 to 1000 | < 100 | 100 to 1000 | 100 to 1000 | < 100 | < 100 |  |  |  |  |  |  |  |
| CN(c1ccc(-c2ccc(-n3cccn3)c3[nH]ncc23)nn1)C1CC(C)(C)NC(C)(C)C1 [Compound 559] | 100 to 1000 | 1000 to 10000 | 100 to 1000 | 1000 to 10000 | 100 to 1000 | 100 to 1000 | 100 to 1000 |  |  |  |  |  |  |  |
| c1cnn(-c2ccc(-c3ccc(N4CCNC(C5CC5)C4)nn3)c3cn[nH]c23)c1 (centres unmarked) [Compound 560] | 100 to 1000 | 1000 to 10000 | 100 to 1000 | 1000 to 10000 | 1000 to 10000 | 100 to 1000 | 100 to 1000 |  |  |  |  |  |  |  |
| C[C@@H]1CN(c2ncc(-c3ccc(-c4cn[nH]c4)c4ncsc34)nn2)C[C@H](C)N1 [Compound 562] | > 10000 | > 10000 | 1000 to 10000 | > 10000 | 1000 to 10000 | 1000 to 10000 | 1000 to 10000 |  |  |  |  |  |  |  |
| CC1(C)CN(c2ncc(-c3ccc(-c4cn[nH]c4)c4ncsc34)nn2)CC(C)(C)N1 [Compound 563] | 1000 to 10000 | 1000 to 10000 | 1000 to 10000 | > 10000 | 1000 to 10000 | 1000 to 10000 | 1000 to 10000 |  |  |  |  |  |  |  |
| CN1CCN(c2ncc(-c3ccc(-c4cn[nH]c4)c4ncsc34)nn2)CC1C1CC1 (centres unmarked) [Compound 564] | 100 to 1000 | 1000 to 10000 | 100 to 1000 | 1000 to 10000 | 1000 to 10000 | 100 to 1000 | 100 to 1000 |  |  |  |  |  |  |  |
| c1nc2c(-c3cn[nH]c3)ccc(-c3cnc(N4CCN5CCCC5C4)nn3)c2s1 (centres unmarked) [Compound 565] | 1000 to 10000 | 1000 to 10000 | 1000 to 10000 | > 10000 | 1000 to 10000 | 1000 to 10000 | 1000 to 10000 |  |  |  |  |  |  |  |
| c1nc2c(-c3cn[nH]c3)ccc(-c3cnc(N4CCN5CCCCC5C4)nn3)c2s1 (centres unmarked) [Compound 566] | 100 to 1000 | 1000 to 10000 | 1000 to 10000 | 1000 to 10000 | 1000 to 10000 | 100 to 1000 | 1000 to 10000 |  |  |  |  |  |  |  |
| CN(c1ncc(-c2ccc(-c3cn[nH]c3)c3ncsc23)nn1)C1CC(C)(C)NC(C)(C)C1 [Compound 567] | 100 to 1000 | 1000 to 10000 | 100 to 1000 | 100 to 1000 | 1000 to 10000 | 100 to 1000 | 100 to 1000 |  |  |  |  |  |  |  |
| C[C@H]1CN(c2ncc(-c3ccc(-c4cn[nH]c4)c4ncsc34)nn2)C[C@@H](C2CC2)N1 [Compound 568] | 100 to 1000 | > 10000 | 1000 to 10000 | 1000 to 10000 | 1000 to 10000 | 100 to 1000 | 1000 to 10000 |  |  |  |  |  |  |  |
| CC(C)(C)NC1CCN(c2ncc(-c3ccc(-c4cn[nH]c4)c4ncsc34)nn2)C1 (centres unmarked) [Compound 569] | 100 to 1000 | 1000 to 10000 | 1000 to 10000 | 1000 to 10000 | 1000 to 10000 | 100 to 1000 | 1000 to 10000 |  |  |  |  |  |  |  |
| CC(C)(C)C1CN(c2ncc(-c3ccc(-c4cn[nH]c4)c4ncsc34)nn2)CCN1 (centres unmarked) [Compound 570] | 100 to 1000 | 100 to 1000 | 100 to 1000 | 100 to 1000 | 1000 to 10000 | 100 to 1000 | 100 to 1000 |  |  |  |  |  |  |  |
| C[C@@H]1CN(c2ncc(-c3ccc(-n4cccn4)c4[nH]ncc34)nn2)C[C@H](C)N1 [Compound 571] | 1000 to 10000 | 1000 to 10000 | 1000 to 10000 | 1000 to 10000 | 1000 to 10000 | 100 to 1000 | 1000 to 10000 |  |  |  |  |  |  |  |
| CN(c1ncc(-c2ccc(-c3cn[nH]c3)c3ncsc23)nn1)[C@@H]1CC2CCC[C@@H](C1)N2C [Compound 573] | 1000 to 10000 | > 10000 | > 10000 | > 10000 | 1000 to 10000 | 1000 to 10000 | 1000 to 10000 |  |  |  |  |  |  |  |
| CN(c1ncc(-c2ccc(-n3cccn3)c3[nH]ncc23)nn1)[C@@H]1C[C@H]2CCC[C@@H](C1)N2C [Compound 575] | 100 to 1000 | > 10000 | 1000 to 10000 | 1000 to 10000 | 1000 to 10000 | 100 to 1000 | 1000 to 10000 |  |  |  |  |  |  |  |
| c1cnn(-c2ccc(-c3cnc(N4CCNC5(CC5)C4)nn3)c3cn[nH]c23)c1 [Compound 577] | 100 to 1000 | > 10000 | 1000 to 10000 | > 10000 | 1000 to 10000 | 1000 to 10000 | > 10000 |  |  |  |  |  |  |  |
| CC(C)(C)[C@@H]1CN(c2ncc(-c3ccc(-n4cccn4)c4[nH]ncc34)nn2)CCN1 [Compound 582] | 100 to 1000 | 1000 to 10000 | < 100 | 1000 to 10000 | 1000 to 10000 | 100 to 1000 | 1000 to 10000 |  |  |  |  |  |  |  |
